The target of one assay is PI3K-p110β (Homo sapiens, UniProt P42338). As to the kind of experiment: Biochemical PI3K-p110β inhibition.
The next assay concerns MCF7 Breast Tumour Cell. As to the kind of experiment: MCF7 breast tumour cell growth inhibition. It counts as cell-based. The conditions noted are these: Homo sapiens.
The target of a further assay is PI3K-p110α (Homo sapiens, UniProt P42336). The experiment in a line: PI3K-p110α inhibition. It counts as biochemical.
The next assay deals with PI3K-p110δ (Homo sapiens, UniProt O00329). As to the kind of experiment: PI3K-p110δ inhibition. Type of assay: biochemical.
A further assay deals with PI3K-p110γ (Homo sapiens, UniProt P48736). As to the kind of experiment: PI3K-p110γ inhibition. Type of assay: biochemical.
Where [1] appears, read: read-out: Biochemical IC50, PI3K-p110β.

From patent US9266879B2, “Naphthridine derivatives as PI3K inhibitors for the treatment of cancer and immune-inflammatory disease” (Karus Therapeutic Limited, priority 2010, dated 2016) come the findings set out here.

Broadly, the pIC50 is −log10 of the IC50, conventionally taken in molar units.

pIC50: −log10 of the molar value. Read-outs that look alike come from different tables or passages of the source. A value given as a limit tells only on which side of the number the result lay.

PI3K-p110β, sequence (P42338 whole entry): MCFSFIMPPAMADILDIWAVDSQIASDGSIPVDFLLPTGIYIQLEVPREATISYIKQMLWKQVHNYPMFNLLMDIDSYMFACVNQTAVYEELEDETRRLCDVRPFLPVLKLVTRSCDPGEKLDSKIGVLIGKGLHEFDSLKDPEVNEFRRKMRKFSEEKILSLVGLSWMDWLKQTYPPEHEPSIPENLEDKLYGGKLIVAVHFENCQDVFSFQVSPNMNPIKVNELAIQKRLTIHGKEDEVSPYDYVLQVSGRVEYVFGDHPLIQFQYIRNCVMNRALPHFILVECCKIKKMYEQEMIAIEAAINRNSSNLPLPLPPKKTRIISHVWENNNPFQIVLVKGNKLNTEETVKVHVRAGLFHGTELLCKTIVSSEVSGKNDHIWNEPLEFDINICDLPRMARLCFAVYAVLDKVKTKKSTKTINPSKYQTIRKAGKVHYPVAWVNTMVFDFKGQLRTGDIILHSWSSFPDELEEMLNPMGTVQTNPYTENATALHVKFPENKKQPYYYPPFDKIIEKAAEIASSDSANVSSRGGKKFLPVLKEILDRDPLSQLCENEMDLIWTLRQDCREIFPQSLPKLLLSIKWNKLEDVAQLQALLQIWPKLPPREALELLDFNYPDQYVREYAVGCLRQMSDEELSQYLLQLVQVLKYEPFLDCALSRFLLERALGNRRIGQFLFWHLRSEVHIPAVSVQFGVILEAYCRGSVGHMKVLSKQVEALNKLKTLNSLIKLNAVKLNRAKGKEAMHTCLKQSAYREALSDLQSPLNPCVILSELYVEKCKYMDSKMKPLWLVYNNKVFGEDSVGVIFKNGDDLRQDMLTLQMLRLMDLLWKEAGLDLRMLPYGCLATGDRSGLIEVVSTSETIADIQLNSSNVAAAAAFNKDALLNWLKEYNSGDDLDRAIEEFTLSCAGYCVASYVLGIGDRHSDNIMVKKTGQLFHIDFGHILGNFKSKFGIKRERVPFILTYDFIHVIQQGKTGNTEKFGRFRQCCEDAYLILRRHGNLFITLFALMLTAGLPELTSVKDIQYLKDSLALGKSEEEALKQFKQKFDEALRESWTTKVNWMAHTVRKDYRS
PI3K-p110β, sequence (P27986 whole entry partner): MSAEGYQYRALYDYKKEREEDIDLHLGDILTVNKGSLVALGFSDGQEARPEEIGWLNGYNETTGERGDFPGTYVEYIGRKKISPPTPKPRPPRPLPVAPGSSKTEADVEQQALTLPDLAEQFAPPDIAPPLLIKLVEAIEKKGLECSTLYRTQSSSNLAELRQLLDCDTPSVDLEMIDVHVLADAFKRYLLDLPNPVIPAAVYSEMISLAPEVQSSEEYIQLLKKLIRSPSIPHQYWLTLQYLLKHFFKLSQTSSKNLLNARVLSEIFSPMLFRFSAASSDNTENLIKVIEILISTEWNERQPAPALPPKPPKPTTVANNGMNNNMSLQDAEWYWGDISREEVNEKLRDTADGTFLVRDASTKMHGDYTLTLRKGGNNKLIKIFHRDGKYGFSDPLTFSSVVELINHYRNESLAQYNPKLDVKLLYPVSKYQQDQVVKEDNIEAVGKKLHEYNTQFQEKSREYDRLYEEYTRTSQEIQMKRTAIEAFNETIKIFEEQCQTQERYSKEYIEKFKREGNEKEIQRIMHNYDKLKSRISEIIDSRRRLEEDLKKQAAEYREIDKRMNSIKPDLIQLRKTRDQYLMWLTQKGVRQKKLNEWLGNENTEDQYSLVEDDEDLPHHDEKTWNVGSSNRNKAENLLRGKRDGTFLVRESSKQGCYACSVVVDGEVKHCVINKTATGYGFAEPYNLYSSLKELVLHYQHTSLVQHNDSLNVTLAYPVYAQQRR
PI3K-p110α, sequence (P42336 whole entry): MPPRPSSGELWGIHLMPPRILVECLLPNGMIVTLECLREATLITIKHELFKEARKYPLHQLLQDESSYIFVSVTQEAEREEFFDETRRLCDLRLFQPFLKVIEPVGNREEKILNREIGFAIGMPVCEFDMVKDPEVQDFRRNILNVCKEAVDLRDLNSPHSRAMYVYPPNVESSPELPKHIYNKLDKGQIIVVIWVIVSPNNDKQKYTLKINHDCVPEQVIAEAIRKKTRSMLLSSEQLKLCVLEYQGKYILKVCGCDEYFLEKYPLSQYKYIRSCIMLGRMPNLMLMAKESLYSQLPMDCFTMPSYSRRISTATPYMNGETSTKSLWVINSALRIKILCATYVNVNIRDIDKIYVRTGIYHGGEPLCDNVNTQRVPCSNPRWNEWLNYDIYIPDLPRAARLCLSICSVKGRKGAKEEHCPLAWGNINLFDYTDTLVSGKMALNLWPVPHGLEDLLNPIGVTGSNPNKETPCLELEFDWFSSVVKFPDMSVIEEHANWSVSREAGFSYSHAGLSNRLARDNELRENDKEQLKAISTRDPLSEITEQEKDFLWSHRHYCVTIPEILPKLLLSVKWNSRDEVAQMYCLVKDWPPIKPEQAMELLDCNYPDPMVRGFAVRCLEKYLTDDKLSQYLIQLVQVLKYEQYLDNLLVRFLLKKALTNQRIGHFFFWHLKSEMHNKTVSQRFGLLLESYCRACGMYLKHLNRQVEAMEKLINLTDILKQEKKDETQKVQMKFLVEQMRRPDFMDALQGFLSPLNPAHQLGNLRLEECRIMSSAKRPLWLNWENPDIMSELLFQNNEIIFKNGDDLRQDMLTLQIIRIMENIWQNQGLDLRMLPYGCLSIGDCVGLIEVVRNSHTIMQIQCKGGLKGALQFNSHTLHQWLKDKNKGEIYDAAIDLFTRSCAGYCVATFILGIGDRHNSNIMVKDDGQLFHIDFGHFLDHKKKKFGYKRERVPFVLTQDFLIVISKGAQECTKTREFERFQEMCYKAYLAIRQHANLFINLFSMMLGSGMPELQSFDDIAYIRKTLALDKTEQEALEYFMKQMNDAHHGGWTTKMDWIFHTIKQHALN
PI3K-p110α, sequence (P27986 whole entry partner): as the sequence (P27986 whole entry partner) above
PI3K-p110γ, sequence (P48736 whole entry): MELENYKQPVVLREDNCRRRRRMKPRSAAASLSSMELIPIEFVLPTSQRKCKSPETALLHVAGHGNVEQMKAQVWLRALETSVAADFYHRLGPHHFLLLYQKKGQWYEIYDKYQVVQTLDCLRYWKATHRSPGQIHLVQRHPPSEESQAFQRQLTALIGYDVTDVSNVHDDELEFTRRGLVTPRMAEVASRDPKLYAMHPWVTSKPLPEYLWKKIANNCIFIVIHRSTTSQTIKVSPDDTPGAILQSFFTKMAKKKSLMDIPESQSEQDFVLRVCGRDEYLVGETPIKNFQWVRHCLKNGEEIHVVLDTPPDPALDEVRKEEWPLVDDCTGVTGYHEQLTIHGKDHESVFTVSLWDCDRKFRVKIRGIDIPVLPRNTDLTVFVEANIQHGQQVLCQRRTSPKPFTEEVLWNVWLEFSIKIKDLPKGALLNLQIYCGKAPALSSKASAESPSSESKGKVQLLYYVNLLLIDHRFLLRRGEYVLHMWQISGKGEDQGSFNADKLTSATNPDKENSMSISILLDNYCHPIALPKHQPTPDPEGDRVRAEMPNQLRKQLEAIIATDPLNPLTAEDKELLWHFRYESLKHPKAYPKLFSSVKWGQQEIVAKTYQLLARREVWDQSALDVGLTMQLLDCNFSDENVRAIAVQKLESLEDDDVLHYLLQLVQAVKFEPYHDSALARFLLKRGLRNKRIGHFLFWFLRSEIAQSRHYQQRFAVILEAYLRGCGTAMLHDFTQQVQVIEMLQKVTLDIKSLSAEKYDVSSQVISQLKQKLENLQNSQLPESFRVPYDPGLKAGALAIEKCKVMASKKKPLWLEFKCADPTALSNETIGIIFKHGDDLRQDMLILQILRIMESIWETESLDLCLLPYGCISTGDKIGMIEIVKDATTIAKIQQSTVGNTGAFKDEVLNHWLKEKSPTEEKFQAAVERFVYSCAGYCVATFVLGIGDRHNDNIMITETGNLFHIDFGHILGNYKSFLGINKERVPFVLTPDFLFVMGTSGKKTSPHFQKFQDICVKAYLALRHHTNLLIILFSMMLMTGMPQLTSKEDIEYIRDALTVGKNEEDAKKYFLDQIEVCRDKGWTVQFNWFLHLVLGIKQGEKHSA
PI3K-p110δ, sequence (O00329 whole entry): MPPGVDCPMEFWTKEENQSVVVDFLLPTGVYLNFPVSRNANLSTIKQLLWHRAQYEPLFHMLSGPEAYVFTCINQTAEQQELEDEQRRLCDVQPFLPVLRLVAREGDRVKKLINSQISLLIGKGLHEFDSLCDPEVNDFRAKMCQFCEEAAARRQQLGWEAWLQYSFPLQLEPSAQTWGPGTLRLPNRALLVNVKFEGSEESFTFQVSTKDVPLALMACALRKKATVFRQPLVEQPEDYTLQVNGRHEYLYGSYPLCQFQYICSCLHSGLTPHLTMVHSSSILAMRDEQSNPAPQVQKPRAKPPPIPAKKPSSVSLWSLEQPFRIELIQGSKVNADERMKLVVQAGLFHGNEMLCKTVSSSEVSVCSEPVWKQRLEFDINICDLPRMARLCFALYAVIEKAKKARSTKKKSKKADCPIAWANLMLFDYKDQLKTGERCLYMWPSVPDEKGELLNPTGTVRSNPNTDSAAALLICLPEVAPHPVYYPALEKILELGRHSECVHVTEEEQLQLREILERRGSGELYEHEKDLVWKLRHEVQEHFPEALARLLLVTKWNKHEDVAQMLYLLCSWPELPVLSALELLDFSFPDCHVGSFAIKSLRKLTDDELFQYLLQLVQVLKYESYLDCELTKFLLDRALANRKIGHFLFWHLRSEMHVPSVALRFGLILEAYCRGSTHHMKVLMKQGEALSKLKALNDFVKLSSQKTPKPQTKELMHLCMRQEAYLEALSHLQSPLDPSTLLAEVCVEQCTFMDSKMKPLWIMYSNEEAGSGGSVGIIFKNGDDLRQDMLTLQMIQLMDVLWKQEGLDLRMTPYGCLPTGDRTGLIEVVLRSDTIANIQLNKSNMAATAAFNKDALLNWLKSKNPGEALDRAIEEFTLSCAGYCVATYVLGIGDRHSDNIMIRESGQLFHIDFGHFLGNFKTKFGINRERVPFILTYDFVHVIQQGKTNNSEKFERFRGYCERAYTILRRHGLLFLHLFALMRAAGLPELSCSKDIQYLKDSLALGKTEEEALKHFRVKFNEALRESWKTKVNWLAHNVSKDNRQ
PI3K-p110δ, sequence (P27986 whole entry partner): as the sequence (P27986 whole entry partner) above

`Nc1ccc(-c2cc3ncccc3c(N3CCOCC3)n2)c(Cl)c1` [F, 3-Chloro-4-(5-morpholin-4-yl-[1,6]naphthyridin-7-yl)-phenylamine]: the negative-log IC50 (pIC50) was 5.43 at PI3K-p110β (setting [1]) and 4.96 in the assay with MCF7 Breast Tumour Cell.

Take `Nc1ccc(-c2cc3ncccc3c(N3CCOCC3)n2)cc1Cl` [E, 2-Chloro-4-(5-morpholin-4-yl-[1,6]naphthyridin-7-yl)-phenylamine]: the results for the negative-log IC50 (pIC50) on PI3K-p110β (setting [1]) and with MCF7 Breast Tumour Cell were 6.16 and 5.22, respectively.

For the molecule `c1cc(-c2cc3ncccc3c(N3CCOCC3)n2)c2cc[nH]c2c1` [G, 7-(1H-Indol-4-yl)-5-morpholin-4-yl-1,6-naphthyridine], the pIC50 was 5.47 at PI3K-p110β (isoform panel, second part of table, read-out: IC50 PI3K-p110β); below 5.00 at PI3K-p110α; 6.59 against PI3K-p110δ; below 5.00 against PI3K-p110γ.
